Consider ten molecules from ChEMBL document CHEMBL4346683 (Eur J Med Chem, 2019).

As a reminder, the IC50 is the point on the concentration scale where inhibition reaches its midpoint. Broadly, the CC50 is the concentration that lowers cell viability or growth by half. Broadly, the MIC is the smallest concentration in the dilution series that meets the test's criterion for growth inhibition.

In brackets after ≈: the same amount, converted by molar mass. Activity calls are given as the source filed them. Some results are limits rather than exact numbers.

Series [1] can be described thus: Induction of hemolysis in human erythrocytes assessed as hemoglobin release incubated for 3 hrs by spectrophotometric analysis. The following applies: erythrocyte. The format is cell-based.
Series [2] concerns the target T1, 3-oxoacyl-[acyl-carrier-protein] synthase 3 (Escherichia coli, UniProt C3TDZ2).
T1 sequence (C3TDZ2 whole entry): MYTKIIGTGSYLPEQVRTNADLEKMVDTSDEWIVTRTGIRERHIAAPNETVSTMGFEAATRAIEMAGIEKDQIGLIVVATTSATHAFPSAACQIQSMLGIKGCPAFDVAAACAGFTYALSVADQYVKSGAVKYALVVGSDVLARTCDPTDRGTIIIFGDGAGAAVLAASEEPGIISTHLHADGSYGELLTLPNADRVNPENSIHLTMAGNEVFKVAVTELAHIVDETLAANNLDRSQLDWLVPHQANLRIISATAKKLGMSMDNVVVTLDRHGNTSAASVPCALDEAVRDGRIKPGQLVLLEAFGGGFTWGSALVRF
Description: Inhibition of Escherichia coli FabH in presence of radiolabelled substrates and acetyl-coA by enzyme coupled FabD/FabH assay system.

Series [3] can be described thus: Cytotoxicity against human 293T cells assessed as reduction in cell viability incubated for 24 hrs by MTT assay. The format is cell-based. The following applies: HEK-293T cells. In general terms: Formazan colour is commonly taken as a measure of viable cells.
Series [4] relates to Pseudomonas aeruginosa. Description: Antibacterial activity against Pseudomonas aeruginosa ATCC 27853 assessed as inhibition of bacterial growth incubated for 24 hrs by TTC double broth dilution method. The format is functional. Conditions: ATCC 27853, 24 h. In general terms: Dilution methods test growth across graded concentrations, often in twofold steps.
Series [5] has as its system Xanthomonas oryzae pv. oryzae. Description: Antibacterial activity against wild type Xanthomonas oryzae pv. oryzae KACC10331 expressing FabH assessed as reduction in bacterial growth. The format is functional.
In series [6] the test system is Escherichia coli. Description: Antibacterial activity against Escherichia coli ATCC 25922 assessed as inhibition of bacterial growth incubated for 24 hrs by TTC double broth dilution method. It counts as functional. The following applies: ATCC 25922, 24 h.
In series [7] the test system is Bacillus subtilis. Kind of series: Antibacterial activity against Bacillus subtilis ATCC 530 assessed as inhibition of bacterial growth incubated for 24 hrs by TTC double broth dilution method. It counts as functional. The following applies: ATCC 530, 24 h.
For series [8], the system named is Staphylococcus aureus. Description: Antibacterial activity against Staphylococcus aureus ATCC 25923 assessed as inhibition of bacterial growth incubated for 24 hrs by TTC double broth dilution method. The format is functional. The following applies: ATCC 25923, 24 h.
The nature of series [9]: Inhibition of Enterococcus faecalis FabH.
Series [10] is described as follows: Inhibition of Streptococcus pyogenes FabH.
Series [11] relates to Staphylococcus aureus. Kind of series: Antibacterial activity against Staphylococcus aureus. It counts as functional.
For series [12], the system named is Streptococcus pneumoniae. Description: Antibacterial activity against Streptococcus pneumoniae. It counts as functional.
For series [13], the system named is Enterococcus faecium. Kind of series: Antibacterial activity against Enterococcus faecium. The format is functional.
Series [14] concerns Xanthomonas oryzae pv. oryzae. Kind of series: Antibacterial activity against wild type Xanthomonas oryzae pv. oryzae KACC10331 expressing FabH assessed as reduction in bacterial growth at 5 ug/ml. The format is functional, organism-based.

As to `O=C(c1cccnc1)n1c(-c2cn(-c3ccccc3)nc2-c2ccc(C(F)(F)F)cc2)nc2ccccc21`, the LC30 in [1] is > 10000 µg/mL. Also, the IC50 in series [2] is 15.2 µM. Besides, the cytotoxic concentration (CC50) at 24 h in series [3] was determined as 158 µM. In addition, the MIC in series [4] was 62.5 µg/mL (≈ 123 µM); in series [5] it was 15.6 µg/mL (≈ 30.7 µM); in series [6], 62.5 µg/mL (≈ 123 µM); in series [7], 1.95 µg/mL (≈ 3.83 µM); in [8], 62.5 µg/mL (≈ 123 µM).
Take `O=C(Nc1cccc(O)c1C(=O)O)c1ccc(-c2ccccc2)c(Oc2ccccc2)c1`: the IC50 in series [9] and in series [10] was 0.004 µM throughout.
In the case of `C[C@]12C[C@@]34C=CC(=O)[C@@](C)(CCC(=O)Nc5c(O)ccc(C(=O)O)c5O)[C@@H]3[C@H](C[C@@H]1C4)O2`, the MIC in series [11], in [12] and in series [13] was 0.5 to 1 µg/mL (≈ 1.13 to 2.27 µM) in each case.
As for `Cc1cncc(C(=O)n2c(-c3cn(-c4ccccc4)nc3-c3ccc(C(F)(F)F)cc3)nc3ccccc32)c1`, the LC30 in series [1] was > 10000 µg/mL. The IC50 in series [2] was found to be 22.9 µM. Also, in series [3], the CC50 at 24 h amounted to 123 µM. Also, the MIC worked out at 62.5 µg/mL (≈ 119 µM) in series [4]; 7.82 µg/mL (≈ 14.9 µM) in series [5]; 62.5 µg/mL (≈ 119 µM) in [6]; 0.98 µg/mL (≈ 1.87 µM) in series [7]; 62.5 µg/mL (≈ 119 µM) in series [8]. Also, the inhibition result in series [14] was “Active”.
With `O=C(c1cccnc1)n1c(-c2cn(-c3ccccc3)nc2-c2ccc(F)cc2)nc2ccccc21`, in series [1], the LC30 was > 10000 µg/mL. In series [2], the IC50 came to 1.22 µM. Further, in series [3], the CC50 at 24 h was 216 µM. Further, the MIC is 0.49 µg/mL (≈ 1.07 µM) in series [4]; 0.49 µg/mL (≈ 1.07 µM) in series [5]; 0.98 µg/mL (≈ 2.13 µM) in series [6]; 0.98 µg/mL (≈ 2.13 µM) in series [7]; 0.98 µg/mL (≈ 2.13 µM) in [8]. Besides, in [14], the inhibition entry was “Active”.
For the molecule `Cc1ccc(C(=O)n2c(-c3cn(-c4ccccc4)nc3-c3ccc(F)cc3)nc3ccccc32)cn1`, in series [1], the LC30 was > 10000 µg/mL. For the same molecule, the IC50 in series [2] was determined as 4.02 µM. In series [3], the CC50 at 24 h was 137 µM. For the same molecule, the MIC in series [4] worked out at 62.5 µg/mL (≈ 132 µM); in series [5], 15.6 µg/mL (≈ 33 µM); in series [6], 1.95 µg/mL (≈ 4.12 µM); in series [7], 0.98 µg/mL (≈ 2.07 µM); in series [8], 62.5 µg/mL (≈ 132 µM).
On to `Cc1ccc(C(=O)n2c(-c3cn(-c4ccccc4)nc3-c3ccc(C)cc3)nc3ccccc32)cc1`, for which, in series [1], the LC30 is > 10000 µg/mL. Besides, in series [2], the IC50 was 3.06 µM. Also, in series [3], the CC50 at 24 h is 176 µM. The MIC in series [4] is 31.2 µg/mL (≈ 66.7 µM); in series [6], 3.9 µg/mL (≈ 8.32 µM); in series [7], 0.98 µg/mL (≈ 2.09 µM); in series [8] it was > 62.5 µg/mL.
As to `Cc1ccc(-c2nn(-c3ccccc3)cc2-c2nc3ccccc3n2C(=O)c2ccc(Cl)cc2)cc1`, in series [1], the LC30 is > 10000 µg/mL. Besides, the IC50 in [2] was found to be 38.2 µM. For the same molecule, the CC50 at 24 h in series [3] is 216 µM. Also, the minimum inhibitory concentration (MIC) in series [4] is > 62.5 µg/mL; in [6], 62.5 µg/mL (≈ 128 µM); in series [7] it was 62.5 µg/mL (≈ 128 µM); in series [8], > 62.5 µg/mL.
In the case of `O=C(c1ccccc1)n1c(-c2cn(-c3ccccc3)nc2-c2ccc(F)cc2)nc2ccccc21`, the LC30 in series [1] was > 10000 µg/mL. In addition, the IC50 in series [2] is 22.1 µM. Moreover, in [3], the CC50 at 24 h worked out at 180 µM. The MIC was 62.5 µg/mL (≈ 136 µM) in series [4], 62.5 µg/mL (≈ 136 µM) in series [6], 7.8 µg/mL (≈ 17 µM) in series [7] and > 62.5 µg/mL in series [8].
As to `Cc1ccc(-c2nn(-c3ccccc3)cc2-c2nc3ccccc3n2C(=O)c2ccc(C)nc2)cc1`, the LC30 in series [1] is > 10000 µg/mL. In addition, the IC50 in series [2] is 16.9 µM. The CC50 at 24 h in series [3] turned out to be 145 µM. Also, the MIC in series [4] was 62.5 µg/mL (≈ 133 µM); in series [5] it was 15.6 µg/mL (≈ 33.3 µM); in [6], 62.5 µg/mL (≈ 133 µM); in [7], 0.98 µg/mL (≈ 2.09 µM); in [8], 62.5 µg/mL (≈ 133 µM).
